Data reported in patent US12662491B2 (Redona Therapeutics, Inc., priority 2020, dated 2026).
Where two headings read alike, the source gives them in different places.

Target: T1, Zcchc11 enzyme (Homo sapiens, UniProt Q5TAX3)
T1 construct: made in house; host or cells: HEK293 cells (Zcchc11); E. coli Rosetta II (LIN28A)
T1 sequence (Q5TAX3 212-1420): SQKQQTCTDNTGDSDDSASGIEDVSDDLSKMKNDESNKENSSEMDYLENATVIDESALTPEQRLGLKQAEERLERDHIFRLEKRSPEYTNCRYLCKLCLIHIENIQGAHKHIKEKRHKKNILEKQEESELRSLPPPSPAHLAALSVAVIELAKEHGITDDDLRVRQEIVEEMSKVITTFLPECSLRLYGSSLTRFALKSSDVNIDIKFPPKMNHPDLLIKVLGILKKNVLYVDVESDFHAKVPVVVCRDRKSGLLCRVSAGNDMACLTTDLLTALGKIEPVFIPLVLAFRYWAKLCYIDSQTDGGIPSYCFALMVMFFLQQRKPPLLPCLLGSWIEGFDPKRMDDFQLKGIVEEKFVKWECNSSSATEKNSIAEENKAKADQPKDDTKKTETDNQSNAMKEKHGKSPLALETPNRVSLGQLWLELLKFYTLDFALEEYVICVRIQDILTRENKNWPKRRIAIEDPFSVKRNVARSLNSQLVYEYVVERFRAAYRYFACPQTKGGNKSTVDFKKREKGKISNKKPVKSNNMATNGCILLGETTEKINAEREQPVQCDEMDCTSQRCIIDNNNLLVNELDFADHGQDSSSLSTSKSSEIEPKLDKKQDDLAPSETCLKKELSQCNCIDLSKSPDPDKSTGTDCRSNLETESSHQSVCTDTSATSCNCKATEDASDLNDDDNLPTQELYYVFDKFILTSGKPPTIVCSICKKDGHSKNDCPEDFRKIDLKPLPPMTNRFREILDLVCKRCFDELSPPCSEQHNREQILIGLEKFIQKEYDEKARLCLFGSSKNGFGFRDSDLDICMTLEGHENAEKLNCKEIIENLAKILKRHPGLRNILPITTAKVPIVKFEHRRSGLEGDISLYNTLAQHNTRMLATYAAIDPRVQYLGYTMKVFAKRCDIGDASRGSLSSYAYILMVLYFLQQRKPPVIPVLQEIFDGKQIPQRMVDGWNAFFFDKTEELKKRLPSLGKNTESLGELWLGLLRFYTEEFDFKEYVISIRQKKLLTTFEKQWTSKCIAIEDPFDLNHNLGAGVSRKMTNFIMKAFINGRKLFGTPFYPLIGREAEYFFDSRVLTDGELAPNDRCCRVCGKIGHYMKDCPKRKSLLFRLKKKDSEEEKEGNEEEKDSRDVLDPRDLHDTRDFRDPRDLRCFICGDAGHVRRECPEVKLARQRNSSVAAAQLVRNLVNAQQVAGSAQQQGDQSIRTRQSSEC
Assay: TUTase assay (Zcchc11 assay, Lin28a-dependent polyuridylation of pre-let-7)
Assay type: biochemical
Details: read-out: Potency Lin28a-dep Z11 IC50
Method in brief: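 Potency is measured as inhibition of LIN28A-driven U-tail addition to 2 nM pre-let-7 by 0.2 nM HEK293-derived Zcchc11 fragment with 5 uM UTP at room temperature. Tail growth appears as fluorescein quenching by an annealing rhodamine-A20 probe.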

[1] = Lin28a-dependent Zcchc11 (Z11) TUTase assay
[2] = LIN28A 10 nM, Zcchc11 0.2 nM, 5′-fluorescein pre-let-7 miRNA 2 nM, UTP 5 uM, room temperature, 30 minutes pre-incubation
[3] = Lin28a-dependent Zcchc11 (Z11) TUTase activity

Structure (SMILES) | IC50 [1] | further results
COc1cccc(-n2cc(C(=O)O)c(=O)c3cc(F)c(N4CCC[C@@H]4COc4ccccn4)cc32)c1 [Example 399, (R)-6-fluoro-1-(3-methoxyphenyl)-4-oxo-7-(2-((pyridin-2-yloxy)methyl)pyrrolidin-1-yl)-1,4-dihydroquinoline-3-carboxylic acid] | ≤ 1000 nM | –
CNCCNc1ccc(-n2cc(C(=O)O)c(=O)c3cc(Cl)c(N4CCC[C@@H]4COc4ncccc4Cl)cc32)cn1 [Example 355, (R)-6-chloro-7-(2-(((3-chloropyridin-2-yl)oxy)methyl)pyrrolidin-1-yl)-1-(6-((2-(methylamino)ethyl)amino)pyridin-3-yl)-4-oxo-1,4-dihydro-quinoline-3-carboxylic acid] | ≤ 1000 nM | –
O=C(O)c1cn(-c2ccc(O)c(Cl)c2)c2cc(N3CCC[C@@H]3COc3ccccn3)c(Cl)cc2c1=O [Example 409, (R)-6-chloro-1-(3-chloro-4-hydroxyphenyl)-4-oxo-7-(2-((pyridin-2-yloxy)methyl)pyrrolidin-1-yl)-1,4-dihydroquinoline-3-carboxylic acid] | ≤ 1000 nM | –
O=C(O)c1cn(-c2cnccn2)c2cc(N3C[C@@H](F)C[C@H]3COc3ncccc3Cl)c(Cl)cc2c1=O [Example 519, 6-chloro-7-((2S,4S)-2-(((3-chloropyridin-2-yl)oxy)methyl)-4-fluoropyrrolidin-1-yl)-4-oxo-1-(pyrazin-2-yl)-1,4-dihydroquinoline-3-carboxylic acid] | ≤ 1000 nM | –
O=C(O)c1cn(-c2ccc(OCCO)cc2)c2cc(N3CCC[C@@H]3COc3ncccc3Br)c(F)cc2c1=O [Example 21, (R)-7-(2-(((3-bromopyridin-2-yl)oxy)methyl)pyrrolidin-1-yl)-6-fluoro-1-(4-(2-hydroxyethoxy)phenyl)-4-oxo-1,4-dihydroquinoline-3-carboxylic acid] | – | IC50 [2]: ≤ 1000 nM
COCCNc1ccc(-n2cc(C(=O)O)c(=O)c3cc(Cl)c(N4CCC[C@@H]4COc4ncccc4Cl)cc32)cn1 [Example 413, (R)-6-chloro-7-(2-(((3-chloropyridin-2-yl)oxy)methyl)pyrrolidin-1-yl)-1-(6-((2-methoxyethyl)amino)pyridin-3-yl)-4-oxo-1,4-dihydroquinoline-3-carboxylic acid] | ≤ 1000 nM | –
CN(C)C1CN(c2ccc(-n3cc(C(=O)O)c(=O)c4cc(Cl)c(N5CCC5COc5ccccn5)cc43)cn2)C1 (centres unmarked) [Compound 219, 6-chloro-1-[6-[3-(dimethyl-amino)azetidin-1-yl]pyridin-3-yl]-4-oxo-7-[2-[(pyridin-2-yloxy)methyl]azetidin-1-yl]quinoline-3-carboxylic acid] | – | IC50 [3]: 1000 to 10000 nM
CN(C)C1CN(c2ccc(-n3cc(C(=O)O)c(=O)c4cc(Cl)c(N5CCC[C@@H]5COc5nc6c(ccn6C)cc5Cl)cc43)cn2)C1 [Example 645, (R)-6-chloro-7-(2-(((5-chloro-1-methyl-1H-pyrrolo[2,3-b]pyridin-6-yl)oxy)methyl)pyrrolidin-1-yl)-1-(6-(3-(dimethylamino)azetidin-1-yl)pyridin-3-yl)-4-oxo-1,4-dihydroquinoline-3-carboxylic acid] | ≤ 1000 nM | –
O=C(O)c1cn(-c2ccnc(N3CCC3)c2)c2cc(N3CCC[C@@H]3COc3ccccn3)c(Cl)cc2c1=O [Example 553, (R)-1-(2-(azetidin-1-yl)pyridin-4-yl)-6-chloro-4-oxo-7-(2-((pyridin-2-yloxy)methyl)pyrrolidin-1-yl)-1,4-dihydroquinoline-3-carboxylic acid] | ≤ 1000 nM | –
Cc1cc(C)cc(-n2cc(C(=O)O)c(=O)c3cc(F)c(N4CCC[C@@H]4COc4ccccn4)cc32)c1 [Example 389, (R)-1-(3,5-dimethylphenyl)-6-fluoro-4-oxo-7-(2-((pyridin-2-yloxy)methyl)pyrrolidin-1-yl)-1,4-dihydroquinoline-3-carboxylic acid] | 1000 to 10000 nM | –
Cc1cccnc1OC[C@H]1CCCN1c1cc2c(cc1F)c(=O)c(C(=O)O)cn2-c1ccc(O)c(Cl)c1 [Compound 122, (R)-1-(3-chloro-4-hydroxy-phenyl)-6-fluoro-7-(2-(((3-methylpyridin-2-yl)oxy)methyl)pyrrolidin-1-yl)-4-oxo-1,4-dihydro-quinoline-3-carboxylic acid] | – | IC50 [3]: ≤ 1000 nM
CN(C)C1CN(c2ccc(-n3cc(C(=O)O)c(=O)c4cc(Cl)c(N5CCC[C@H]5COc5ncccc5Cl)cc43)cn2)C1 [Example 666, (S)-6-chloro-7-(2-(((3-chloropyridin-2-yl)oxy)methyl)pyrrolidin-1-yl)-1-(6-(3-(dimethylamino)azetidin-1-yl)pyridin-3-yl)-4-oxo-1,4-dihydroquinoline-3-carboxylic acid] | ≤ 1000 nM | –
COc1ccc(F)c(-n2cc(C(=O)O)c(=O)c3cc(F)c(N4CCC[C@@H]4COc4ccccn4)cc32)c1 [Example 400, (R)-6-fluoro-1-(2-fluoro-5-methoxyphenyl)-4-oxo-7-(2-((pyridin-2-yloxy)methyl)pyrrolidin-1-yl)-1,4-dihydroquinoline-3-carboxylic acid] | 1000 to 10000 nM | –
Cc1ccc(F)cc1-n1cc(C(=O)O)c(=O)c2cc(F)c(N3CCC[C@@H]3COc3ccccn3)cc21 [Example 393, (R)-6-fluoro-1-(5-fluoro-2-methylphenyl)-4-oxo-7-(2-((pyridin-2-yloxy)methyl)pyrrolidin-1-yl)-1,4-dihydroquinoline-3-carboxylic acid] | 1000 to 10000 nM | –
CN(C)C1CN(c2ccc(-n3cc(C(=O)O)c(=O)c4cc(Cl)c(N5C[C@@H](O)C[C@@H]5COc5ncccc5Cl)cc43)cn2)C1 [Example 598, 6-chloro-7-((2R,4S)-2-(((3-chloropyridin-2-yl)oxy)methyl)-4-hydroxypyrrolidin-1-yl)-1-(6-(3-(dimethylamino)azetidin-1-yl)pyridin-3-yl)-4-oxo-1,4-dihydroquinoline-3-carboxylic acid] | ≤ 1000 nM | –
Cc1cccnc1OC[C@H]1CCCN1c1cc2c(cc1F)c(=O)c(C(=O)O)cn2-c1cnccn1 [Example 15, (R)-6-fluoro-7-(2-(((3-methylpyridin-2-yl)oxy)methyl)pyrrolidin-1-yl)-4-oxo-1-(pyrazin-2-yl)-1,4-dihydroquinoline-3-carboxylic acid] | – | IC50 [2]: ≤ 1000 nM
NC1CC(n2cc(C(=O)O)c(=O)c3cc(Cl)c(N4CCC[C@@H]4COc4ncccc4Cl)cc32)C1 (stereo partly drawn) [Example 471, (R)-1-(3-aminocyclobutyl)-6-chloro-7-(2-(((3-chloropyridin-2-yl)oxy)methyl)pyrrolidin-1-yl)-4-oxo-1,4-dihydroquinoline-3-carboxylic acid] | 1000 to 10000 nM | –
CN(C)[C@H]1CCN(c2ccc(-n3cc(C(=O)O)c(=O)c4cc(Cl)c(N5CCC[C@@H]5COc5ncccc5Cl)cc43)cn2)C1 [Example 521, 6-chloro-7-((R)-2-(((3-chloropyridin-2-yl)oxy)methyl)pyrrolidin-1-yl)-1-(6-((S)-3-(dimethylamino)pyrrolidin-1-yl)pyridin-3-yl)-4-oxo-1,4-dihydroquinoline-3-carboxylic acid] | ≤ 1000 nM | –
Cc1ccnc(OC[C@H]2CCCN2c2cc3c(cc2F)c(=O)c(C(=O)O)cn3-c2ccccc2)c1 [Compound 94, (R)-6-fluoro-7-(2-(((4-methyl-pyridin-2-yl)oxy)methyl)pyrrolidin-1-yl)-4-oxo-1-phenyl-1,4-dihydro-quinoline-3-carboxylic acid] | – | IC50 [3]: ≤ 1000 nM
COc1ccc(Cl)c(OC[C@H]2C[C@H]3C[C@H]3N2c2cc3c(cc2F)c(=O)c(C(=O)O)cn3-c2ccc(N3CC(N(C)C)C3)nc2)n1 [Example 68, 7-((1R,3R,5R)-3-(((3-chloro-6-methoxypyridin-2-yl)oxy)methyl)-2-azabicyclo[3.1.0]hexan-2-yl)-1-(6-(3-(dimethylamino)azetidin-1-yl)pyridin-3-yl)-6-fluoro-4-oxo-1,4-dihydroquinoline-3-carboxylic acid] | – | IC50 [2]: ≤ 1000 nM
